Data taken from patent publication US20150141460A1, “Anti-inflammatory Compositions” (Cambridge Enterprise Limited, priority 2007, published 2015).
Where two headings read alike, the source gives them in different places.

How the values were obtained:
[1] = Pharmacokinetics following a single dose in rat (1 mg/kg iv, 3 mg/kg oral), LC-MS/MS, one-compartment model; type: in vivo; settings: for bioavailability / clearance / Vd / half-life: plasma; for bioavailability: 3 mg/kg oral in 1% CMC vs 1 mg/kg iv, one-compartment model, read-out: F (%) oral bioavailability; for clearance / Vd / half-life: iv, 1 mg/kg; for Vd: read-out: Vss (L/kg) volume of distribution; for AUC(0-t): blood, single oral dose 3 mg/kg in 1% CMC, Tables 7-9, read-out: Exposure (min · ng/ml), oral exposure AUC 0-t (converted)
Experimental: Compounds were administered as a single dose (either 1 mg/kg bodyweight in 5% DMSO via the intravenous route or 3 mg/kg in 1% carboxymethylcellulose via the oral route) to three adult rats (using different rats for each compound and each route of administration).
Blood was then sampled at various time points (including just prior to dose administration) out to 24 hrs post dose, and the level of the various compounds was assessed using a validated LC-MS/MS assay. Briefly, 3-5 μl of the deproteinised sample was applied to a Waters Atlantis (C18 20×2.1 mm, 3 μm bead size) reverse phase chromatography column equilibrated in 0.1% formic acid in 95:5 water:actetonitrile. Over 3.5 minutes bound material was gradient eluted reaching 0.1% formic acid in 5:95 water:acetonitrile, followed by a step gradient back to 0.1% formic acid in 95:5 water:acetonitrile. The column eluent was then directed to an Applied Biosystems API 4000/3200 QTrap MS/MS mass spectrometer, with a TurboIonspray™ ion source operating in positive ion mode. The interface temperature was set at 650° C., with a 40 ms dwell time for each MRM transition, monitoring the following ions:
The internal standard in each determination was the related compound (S)-3-(2′,2′-dimethyl-propanoylamino)-caprolactam, which was spiked into the sample prior to deproteinization. The lower limit of quantitation (LLOQ) for this assay was 2.4 ng/ml for each compound except (I′), where it was 38.1 ng/ml.
Following LC-MS/MS analysis of each collected sample, the pharmacokinetic disposition of the compound was modelled using Kinetica software, a well known software package for such applications.
Compounds (VI) and (VII) were subject to pharmacokinetic analysis in rat using exactly the same protocols previous applied for compounds (I) through (V) in example 1.
We therefore subjected (VIII) to pharmacokinetic analysis in rat using exactly the same protocols previous applied for compounds (I′) through (VII) in examples 1 and 7.
The isolated (R)-enantiomer of (I) was therefore synthesised (exactly as described herein for the isolated (S)-enantiomer, but replacing the (S)-ornithine starting material with commercially available (R)-ornithine of high stereochemical purity), and the PK properties of this agent, in rat, was determined using the identical methodology described above (see Examples 1, 7 and 8).

[2] = Identification of the primary metabolites in pooled rat urine by LC-MS-MS; type: in vivo; settings: single oral dose 3 mg/kg in 1% CMC, pooled urine over 24 hrs, qualitative
Experimental: (§1) Urine was collected from rats exposed to a single oral dose (3 mg/kg in 1% CMC) of each compound over a 24 hour period in metabolic cages. The pooled urine sample was then subjected to full scan mass spectral analysis, using the same LC-MS conditions as described in example 1 above. Further MS-MS analysis of the product ions was then performed, and likely fragmentations/re-arrangements assigned from the publicly available Metabolite ID database.
For the major metabolites, the assigned structures were confirmed by synthesis of authentic samples, using methods well known in the art, which were subject to LC-MS-MS analysis under the same conditions as the urine samples.
Note that metabolite ID studies provide only qualitative estimates of the relative amounts of the different metabolites present, and separately validated assays with appropriate internal standards would be required to quantitate each metabolite species.

[3] = Distribution of unchanged compound into tissues and urine 24 hrs after a single dose in rat; type: in vivo
Experimental: as §1
To provide a quantitative estimate of the degree of metabolism suffered by each of the compounds tested, the amount of unchanged parent compound in urine was measured using the same validated LC-MS assay described in example 1, using (S)-3-(2′,2′-dimethylpropanoylamino)-caprolactam as an internal standard. In addition, the level of compounds in various target tissues was also determined.

[4] = Stability in serum in vitro; type: in vitro ADME; settings: human serum; 37° C.
Excerpt: As an approach to identifying such stable analogs, various derivatives of (S)-3-(undec-10-enoyl)-aminoglutarimide have been tested for their stability in serum.

[5] = Solubility as observed (water, dosing vehicle); type: physicochemical; settings: 5% DMSO in saline
[6] = tested on: LPS-induced TNF-α production; test: Sub-lethal LPS-induced endotoxemia in mice, serum TNF-α by ELISA; type: in vivo; settings: for inhibition of LPS-induced TNF-α production (reference agents, previously shown): mice, dose not stated
Experimental: FIGS. 5A-5E show representative dose response curves for the inhibition of LPS induced TNF-α production in vivo in a murine model of sub-lethal endotoxemia. In each experiment, groups of six mice received pre-treatment with the five compounds (FIG. 5A: (II); FIG. 5B: (III); FIG. 5C: (V); FIG. 5D: (I′) and FIG. 5E: (IV)) at various doses, via either the oral route (circles) or subcutaneous route (triangles). 30-60 mins later, animals were challenged with LPS via the intraperitoneal route, and serum was prepared from a terminal bleed 3 hours later. The level of TNF-α in the blood was measured by ELISA, and the degree of inhibition of LPS-induced TNF-α production (calculated as the concentration of TNF-α in mice exposed to LPS minus the concentration of TNF-α in mice which received a sham exposure to endotoxin-free PBS) is shown on the Y-axis of each graph as the mean of six animals, with whiskers representing SEMs. The concentration of TNF-α in mice receiving LPS but no BSCI treatment was typically 5,000 to 6,000 pg/ml on average (compared to <10 pg/ml in unchallenged mice). The ED50 was estimated by linear interpolation of the presented graphs. The X-axis of each graph represents the dose of each compound administered to each mouse in the group in units of mg (1E-07 to 1).
In this assay, mice are given a non-specific pro-inflammatory challenge using bacterial endotoxin (LPS), and the extent of the systemic inflammatory response (measured by serum levels of the central pro-inflammatory cytokine TNF-α, which is essentially absent from the blood under normal conditions, but is rapidly elevated in response to a wide range of inflammatory stimuli). We have selected this model even though it is not, itself, a particularly close model of any human inflammatory disease condition, but because TNF-α is known to be important in very many diseases (including rheumatoid arthritis, autoimmune disorders, Crohn's Disease, atherosclerosis, asthma and many more). Consequently, agents which suppress TNF-α production are already used clinically (e.g. Enbrel™ and other anti-TNF-α antibody products) to treat a wide range of such diseases.
Mice (in groups of 6) were pretreated with various doses of each compound, either by the subcutaneous route 30 mins prior to LPS challenge, or by the oral route (via gavage) 60 mins prior to LPS. The mice were then challenged with an intraperitoneal injection of 750 μg of bacterial LPS and sacrificed 3 hours later. Serum was prepared from a terminal bleed by cardiac puncture, and the concentration of TNF-α is determined by ELISA (R&D Systems). In each experiment, a group of 6 mice receive no LPS to act as a negative control, and a second group receive only LPS (with no candidate inhibitor). […]

[7] = tested on: chemokine-induced migration; settings: read-out: ED50 inhibition of chemokine-induced migration in vitro; cited from earlier work
leukocytes in BAL fluid = test: Ovalbumin-induced lung inflammation model of asthma, cell counts in BAL fluid; type: in vivo, Brown Norway rats; settings: 30 mg/kg daily via the oral route
Excerpt: Bars represent mean cell counts, shown on the Y axis in units of 10^6 cells, for groups of […] with whiskers representing SEM; * p<0.01 versus ‘sensitised’ using Student's unpaired t-test assuming equal variance, with two tails). The horizontal line represents the average number of leukocytes present in BAL fluid from the lungs of unchallenged rats. All rats in the remaining three groups received the same sensitisation and challenge regimen, but were either treated with vehicle only (‘Sensitised’), or with compound (I′) at 0.3 mg/kg bodyweight or with monteleukast (‘Singulair™’) at 30 mg/kg bodyweight, all administered daily by oral gavage.
Adult Brown Norway rats (200-300 g body weight; n=10 per group) were sensitised by a single intraperitoneal injection of 0.1 mg Ovalbumin on day 0. Each rat then received an intratracheal challenge with a solution of 1% ovalbumin (w/v) on day 8, and with 2% ovalbumin (w/v) on days 15, 18 and 21. The animals were then sacrificed 3 hours after the final challenge on day 21. […]
On sacrifice, total lung leukocyate recruitment was assessed by performing a broncheoalveolar lavage (BAL) using 4 lots of 3 ml sterile phosphate-buffered saline introduced through a tracheal cannula. For each animal, the BAL washes were combined, and the total cell population counted (using a haemocytometer). […]

[8] = intravenous dosing 1 mg/kg, averaged across three rats, read-out: t1/2 (mins) dominant plasma half-life

CC1(C(=O)N[C@H]2CCCCNC2=O)CCCCC1 [(III), 3-(1′-methylcyclohexylcarbonylamino)-caprolactam]
bioavailability ([1]; averaged across three rats): 5% | clearance ([1]; averaged across three rats): 55 mL/min/kg | Vd ([1]; averaged across three rats): 0.6 L/kg | half-life [1, 8]: 11 min | major metabolites / route of metabolism detected in urine [2]: cytochrome P450-mediated hydroxylation

CC(C)(C)S(=O)(=O)N[C@H]1CCCCNC1=O [(IV), 3-(1′,1′-dimethylethylsulfonylamino)-caprolactam]
Urine (ng/ml) unchanged parent compound ([3]; 24 hrs after a single oral dose 3 mg/kg in 1% CMC): 1010 ng/mL | unchanged parent compound recovered in urine, % of the injected dose ([3]; single oral dose 3 mg/kg in 1% CMC, 24 hrs): less than 10% | major metabolites / route of metabolism detected in urine [2]: the major metabolite could not be identified

C=CCCCCCCCCC(=O)[C@@H]1CCCNC1=O [(S)-3-(undec-10-enoyl)-tetrahydropyridin-2-one]
time completely stable in serum [4]: at least 7 days

O=C1NCCCC1NC(=O)C12CC3CC(CC(C3)C1)C2 (stereo not drawn) [(VII), 3-(adamanatane-1-carbonylamino)-tetrahydropyridin-2-one]
AUC(0-t) [1]: 542 ng·h/mL | bioavailability ([1]; averaged across three rats): 35% | clearance ([1]; averaged across three rats): 31.1 mL/min/kg | Vd ([1]; averaged across three rats): 0.7 L/kg | half-life [1, 8]: 20 min | half-life ([1]; read-out: plasma half-life): < 60 min

CCCCCCCCCCC(C)(C)C(=O)NC1CCCNC1=O (stereo not drawn) [Compound (VI), 3-(2′,2′-dimethyldodecanoylamino)-tetrahydropyridin-2-one]
solubility in iv dosing vehicle [5]: completely insoluble | AUC(0-t) [1]: 183 ng·h/mL | bioavailability ([1]; averaged across three rats): 16% | clearance ([1]; averaged across three rats): 40.3 mL/min/kg | Vd ([1]; averaged across three rats): 1.95 L/kg | half-life [1, 8]: 46 min | half-life ([1]; read-out: plasma half-life): < 60 min

C=CCCCCCCCCC(=O)N[C@H]1CCC(=O)NC1=O [NR58,4, (S)-3-(undec-10-enoyl)-aminoglutarimide]
fold less potent in vivo than 3-(2′,2′-dimethylpropanoylamino)-tetrahydropyridin-2-one ([6]; models of acute inflammation such as LPS-induced endotoxemia): at least 250 fold | EC50 [7]: 5 nM

C[C@@H]1C[C@H]2[C@@H]3CCC4=CC(=O)C=C[C@]4(C)[C@@]3(F)[C@@H](O)C[C@]2(C)[C@@]1(O)C(=O)CO [dexamethasone]
inhibition of LPS-induced TNF-α production (reference agents, previously shown) [6]: at least 90%

CC(C)(O)c1ccccc1CC[C@@H](SCC1(CC(=O)O)CC1)c1cccc(/C=C/c2ccc3ccc(Cl)cc3n2)c1 [monteleukast]
effect on the number of leukocytes in the BAL washes (leukocytes in BAL fluid): significantly reduced the number of leukocytes in the BAL washes

O=C1CCC(N2C(=O)c3ccccc3C2=O)C(=O)N1 (stereo not drawn) [thalidomide]
inhibition of LPS-induced TNF-α production (reference agents, previously shown) [6]: about 60%
